Experimental data: PMC6151740, “Pharmacokinetics, Tissue Distribution, and Elimination of Three Active Alkaloids in Rats after Oral Administration of the Effective Fraction of Alkaloids from Ramulus Mori, an Innovative Hypoglycemic Agent” (Molecules : A Journal of Synthetic Chemistry and Natural …, 2017)
Where two headings read alike, the source gives them in different places.

Tests used:
[1] = Plasma pharmacokinetic study in rats after oral and intravenous administration of SZ–A or purified DNJ; type: in vivo, rat; conditions: for AUC(0-inf) / AUC(0-t) / Tmax / half-life / clearance / MRT last / MRT inf / Vd / Cmax / CLz: rat plasma, n = 5; for clearance: read-out: CLz (converted); for MRT last: read-out: MRT0–t; for MRT inf: read-out: MRT0–∞; for bioavailability: plasma, read-out: F (oral absolute bioavailability)
Protocol: The oral dosing solutions used for all animal studies were prepared by dissolving in water. Thirty rats weighed 250–270 g after acclimation were randomly divided into six groups of five animals each. For oral administration, rats were treated with SZ–A (40, 200, 1000 mg/kg) or purified DNJ (15 mg/kg) dissolve in water. Blood samples (about 0.25 mL) were collected via the postorbital venous plexus veins under ether anesthesia into heparinized polythene tubes before dosing and at 0.08, 0.17, 0.33, 0.50, 1, 2, 3, 4, 6, 8, 12, 24 and 36 h after drug administration. For intravenous dosing, rats were given SZ–A (4 mg/kg) or DNJ (1.5 mg/kg) dissolved in normal saline solution through the tail vein. Then blood samples were collected at 0.03, 0.08, 0.17, 0.33, 0.67, 1, 2, 4, 6, 8, 12, 24, and 36 h under similar conditions. Considering the physical limit of blood in rats, during the process of the pharmacokinetic experiment, each rat was received 0.25 mL of sterile isotonic saline at each time point after blood sampling for compensation of body fluid loss, and the blood loss was also corrected at a definite degree. Plasma was separated by centrifuging the blood samples at 1660× g for 5 min and stored at −20 °C until LC-MS/MS analysis. Data fitting and pharmacokinetic parameter estimates were carried out using non–compartmental analysis via WinNonlin Software (version 6.1, Pharsight Corporation, Mountain View, CA, USA). F was calculated according to the formula: F (%) = (AUC oral/AUC i.v.) × (dose i.v./dose oral) × 100.
The plasma, feces, urine, and bile samples (100 μL) were added to 1 μL of Tris aqueous solution (2 M), 10 μL of IS working solution (2 μg/mL), and 190 μL methanol–acetonitrile (25:75, v/v). The incubation supernatant samples (300 μL) were mixed with 1 μL Tris aqueous solution (2 M) and 10 μL of IS working solution (2 μg/mL). All mixtures were vortexed for 30 s followed by centrifugation at 18,880× g for 5 min, twice.
Briefly, the LC-MS/MS instrument consisted of a 1260 HPLC system (Agilent, Santa Clara, CA, USA) and API4000 triple quadrupole mass spectrometer (Applied Biosystems Sciex, Toronto, ON, Canada) with an electrospray ionization (ESI) source and Analyst software (version 1.5.2, Applied Biosystems Sciex, Toronto, ON, Canada) for data acquisition and processing. DNJ, FGM, DAB, and IS were separated in a Xbridge amide™ column (3.5 μm, 4.6 mm × 150 mm; Waters, Milford, MA, USA) with a gradient mobile phase of acetonitrile-water (0.1% ammonium hydroxide) at a flow rate of 0.7 mL/min. An ESI source was used in the positive ion mode. The optimized mass spectrometric condition was as follows: ion spray voltage, 5500 V; collision gas, 6 psi; curtain gas, 20 psi; ion source gas 1 (GS1), 45 psi; ion source gas 2 (GS2), 45 psi; temperature, 450 °C. The multiple reaction monitoring (MRM) transitions of DNJ, FGM, DAB, and IS were m/z 164.0→110.1 (declustering potential (DP) 50 V, collision energy (CE) 22 V, collision cell exit potential (CXP) 10 V), 148.0→112.1 (DP 66 V, CE 21 V, CXP 10 V), 134.0→98.0 (DP 60 V, CE 20 V, CXP 10 V) and 208.0→146.1 (DP 50 V, CE 27 V, CXP 10 V), respectively.

[2] = In situ single-pass intestinal perfusion (rat jejunum, mesenteric vein blood); type: in vivo; conditions: by 60 min, n = 5
Protocol: The surgical procedures were similar to those described elsewhere. The Hank’s balanced salt solution (HBSS, pH = 7.4) with SZ–A (21.73 μg/mL) or DNJ (50 μM) at 37 °C was infused into the jejunum at 0.3 mL/min individually. Phenol Red (50 μM) was added to serve as a nonabsorbable marker for measuring water flux. The blood from mesenteric vein and perfusate were collected at five-minute intervals. The plasma was separated by centrifugation and perfusate were immediately frozen at −20 °C for LC-MS/MS analysis. Atenolol and propranolol, the low- and high-permeability markers, were used to check the integrity of the intestinal membrane.

[3] = Tissue distribution in rats after oral SZ–A; type: in vivo; conditions: Sprague-Dawley, pancreas, rat, SZ–A 40 mg/kg p.o., 0.25, 0.5 and 2 h, n = 3, read-out: tissue to plasma ratio (T/P) in the pancreas
Protocol: Three groups of rats (three rats in each group) were administered with a single oral dose of SZ–A at 40 mg/kg. Rats each were sacrificed and various tissues, including liver, kidney, pancreas, stomach, duodenum, jejunum, ileum, cecum, colon, and the content in the gastrointestinal tract were collected at 0.25, 0.5, and 2 h time points. One additional rat was sacrificed predose to provide control tissues for analysis. After removing blood or content and weighing, each sample was individually homogenized with normal saline solution (1:3, w/v for tissue; 1:9, w/v for content) using a tissue homogenizer (Polytron PT1600E, Kinematica, Luzern, Switzerland) and stored at −20 °C until LC-MS/MS analysis.

[4] = DNJ 110 mg/kg ingested; cited from earlier work
[5] = Sprague-Dawley, iv, SZ–A 4 mg/kg i.v.
[6] = Sprague-Dawley, iv, purified DNJ 1.5 mg/kg i.v.
[7] = Sprague-Dawley, po, SZ–A 40 mg/kg p.o.
[8] = Sprague-Dawley, po, SZ–A 200 mg/kg p.o.
[9] = Sprague-Dawley, po, SZ–A 1000 mg/kg p.o.
[10] = Sprague-Dawley, po, purified DNJ 15 mg/kg p.o.

For `OC[C@H]1NC[C@H](O)[C@@H](O)[C@@H]1O` [DNJ, 1-deoxynojirimycin], the AUC(0-inf) [1, 5] was 1400 ± 175 ng·h/mL, the AUC(0-t) [1, 5] was 1400 ± 174 ng·h/mL and the Tmax [1, 5] was 1.98 min. It also gave a half-life [1, 5] of 17.4 ± 4.8 min, a clearance [1, 5] of 18.1 mL/min/kg and an MRT last [1, 5] of 48 ± 30 min. It also gave an MRT inf [1, 5] of 49.2 ± 30.6 min, a Vd ([1]; Sprague-Dawley, iv, SZ–A 4 mg/kg i.v., read-out: Vd) of 0.453 ± 0.13 L/kg and an AUC(0-inf) [1, 6] of 1140 ± 108 ng·h/mL. The AUC(0-t) [1, 6] was 1130 ± 108 ng·h/mL, the Cmax [1, 6] was 4520 ± 576 ng/mL and the Tmax [1, 6] was 1.8 min. It also gave a half-life [1, 6] of 15 ± 3 min, a clearance [1, 6] of 22.2 mL/min/kg and an MRT last [1, 6] of 28.8 ± 4.8 min. It also gave an MRT inf [1, 6] of 30 ± 4.8 min, a Vd ([1]; Sprague-Dawley, iv, purified DNJ 1.5 mg/kg i.v., read-out: Vd) of 0.486 ± 0.0854 L/kg and a bioavailability ([1]; Sprague-Dawley, po, rat, SZ–A 40 mg/kg p.o. vs SZ–A 4 mg/kg i.v.) of 72.4%. For the same molecule, the bioavailability ([1]; Sprague-Dawley, po, rat, SZ–A 200 mg/kg p.o. vs SZ–A 4 mg/kg i.v.) was 38.6%, the bioavailability ([1]; Sprague-Dawley, po, rat, SZ–A 1000 mg/kg p.o. vs SZ–A 4 mg/kg i.v.) was 33.3% and the bioavailability ([1]; Sprague-Dawley, po, rat, purified DNJ 15 mg/kg p.o. vs DNJ 1.5 mg/kg i.v.) was 59.4%. The AUC(0-inf) [1, 7] was 10200 ng·h/mL, the AUC(0-t) [1, 7] was 10100 ng·h/mL and the Cmax [1, 7] was 6370 ± 1120 ng/mL. The Tmax [1, 7] was 40.2 ± 17.4 min, the half-life [1, 7] was 78 ± 15 min and the MRT last [1, 7] was 103 ± 40.2 min. For the same molecule, the MRT inf [1, 7] was 107 ± 41.4 min, the AUC(0-inf) [1, 8] was 27000 ng·h/mL and the AUC(0-t) [1, 8] was 27000 ng·h/mL. It also gave a Cmax [1, 8] of 10500 ng/mL, a Tmax [1, 8] of 40.2 ± 12 min and a half-life [1, 8] of 127 ± 28.2 min. It also gave an MRT last [1, 8] of 158 ± 28.8 min, an MRT inf [1, 8] of 163 ± 29.4 min and an AUC(0-inf) [1, 9] of 117000 ng·h/mL. For the same molecule, the AUC(0-t) [1, 9] was 116000 ng·h/mL, the Cmax [1, 9] was 25100 ng/mL and the Tmax [1, 9] was 25.8 ± 5.4 min. The half-life [1, 9] was 211 ± 51 min, the MRT last [1, 9] was 307 ± 88.8 min and the MRT inf [1, 9] was 315 ± 91.8 min. The AUC(0-t) [1, 10] was 6730 ± 1150 ng·h/mL, the Cmax [1, 10] was 4860 ± 1120 ng/mL and the Tmax [1, 10] was 40.2 ± 17.4 min. The half-life [1, 10] was 52.8 ± 8.4 min, the MRT last [1, 10] was 106 ± 15 min and the MRT inf [1, 10] was 111 ± 12.6 min. The CLz ([1]; SZ–A 40 mg/kg p.o.) was 25.013 ± 3.258 mL/min/kg, the Vd ([1]; SZ–A 40 mg/kg p.o.) was 2.8301 ± 0.7411 L/kg and the CLz ([1]; SZ–A 200 mg/kg p.o.) was 47.062 ± 6.693 mL/min/kg. For the same molecule, the Vd ([1]; SZ–A 200 mg/kg p.o.) was 8.6178 ± 2.3175 L/kg, the CLz ([1]; SZ–A 1000 mg/kg p.o.) was 54.045 ± 4.968 mL/min/kg and the Vd ([1]; SZ–A 1000 mg/kg p.o.) was 16,468.3 ± 4217.0 mL/kg. The CLz ([1]; purified DNJ 15 mg/kg p.o.) was 37.693 ± 6.373 mL/min/kg, the “time to reach maximum plasma concentration (Cmax)” value ([1]; rat, after oral administration of SZ–A (40, 200, 1000 mg/kg), upper bound over doses) was at most 0.67 h and the “average AUC of DNJ in the SZ–A group relative to the DNJ group” value ([1]; rat, intravenous injection, SZ–A 4 mg/kg vs purified DNJ 1.5 mg/kg) was 1.2 fold. The “average AUC of DNJ in the SZ–A group relative to the DNJ group” value ([1]; rat, oral administration, SZ–A 40 mg/kg vs purified DNJ 15 mg/kg) was 1.5 fold, the “cumulative amount per unit of area absorbed into the mesenteric venous blood” value ([2]; perfusion of SZ–A 21.73 μg/mL (containing 50 μM DNJ)) was 2136.1 pmol/cm^2 and the “cumulative amount per unit of area absorbed into the mesenteric venous blood” value ([2]; perfusion of purified DNJ 50 μM) was 1787.1 pmol/cm^2. For the same molecule, the Kp [3] was 0.06 to 0.47 and the “fraction of ingested DNJ incorporated into the rat plasma” value [4] was 1%.
